Results on 2 molecules are retold here after patent US20170088609A1, “ANTICANCER COMBINATION THERAPY” (priority 2015, published 2017).

Each structure is given as a SMILES string.

Series [1] concerns HCC827 (EGFRDelE746-A750). From the text: (§1) Compound 1 is a small molecule epidermal growth factor receptor (EGFR) mutant-specific inhibitor. […] Anti-tumor efficacy was independent of schedule (once daily versus twice daily administration) and was tolerated by the mice at clinically relevant exposure. Compound 1 is a novel, 3rd generation EGFR mutant-specific TKI, which is currently being investigated in first and second line setting for treatment of patients with EGFR-mutated NSCLC.

Another series has as its system mutant forms of EGFR. As to the kind of experiment: Enzymatic inhibitory activity towards EGFR. It counts as biochemical.
Excerpt: as §1

For another series, the system named is H1975 (EGFRL858R/T790M). As to the kind of experiment: In vivo xenograft study, NSCLC model H1975. The following applies: H1975 xenograft in mice; once daily or twice daily.
Excerpt: as §1

The next series concerns EGFR mutant cell lines. As to the kind of experiment: Cellular assays comparing EGFR mutant with EGFR wild type cell lines (proliferation). Particulars: EGFR mutant vs EGFR wild type cell lines. It counts as cell-based.
Excerpt: as §1

Series [2] deals with PC-9/GR/WR tumor xenografts. As to the kind of experiment: PC-9/GR/WR xenograft studies (tumor volume). The following applies: SCID mice; HM61713 200 and 400 mg/kg oral gavage 5 days a week. It counts as in vivo. As to the method:
To establish the PC-9/GR/WR xenograft model, female severe combined immunodeficiency (SCID) mice (18-20 g, 6 weeks of age) were purchased from Charles River Laboratories. All experimental procedures were conducted following a protocol approved by the Institutional Animal Care and Use committee of Asan Institute for Life Sciences (2015-02-062). […] Combination with WZ4002: […] Combination with HM61713: […] Body weights were measured every 3-4 days. At the end of the combination experiment with WZ4002, tumors from each group were homogenized for lysate preparation and analyzed by Western Blotting.

Series [3] has as its system T790M-containing cell lines. The following applies: several preclinical models; cited from earlier work.

As to `C=CC(=O)Nc1cccc(Oc2nc(Nc3ccc(N4CCN(C)CC4)cc3)nc3ccsc23)c1` [compound 1, N-(3-{2-[4-(4-methyl-piperazin-1-yl)-phenylamino]-thieno[3,2-d]pyrimidin-4-yloxy}-phenyl)-acrylamide], the “anti-tumor activity as a single agent” value is “Tumor regressions” in series [1] (HCC827 xenograft in mice, once daily or twice daily) and “Tumor regressions” in the series with H1975 (EGFRL858R/T790M). Besides, the tolerability in mice entry in series [1] (mouse, in vivo) was “tolerated”. Besides, the “blocking of the catalytic activity of EGFR mutants” value in the series with mutant forms of EGFR (common EGFR mutants (L858R and exon 19 deletions) and certain uncommon EGFR mutants including T790M, covalent binding) is reported as “irreversibly blocks”. Also, the “enzymatic inhibitory activity towards mutant forms of EGFR compared to wild type EGFR” value with mutant forms of EGFR (in vitro) was “more potent”. The “inhibition of proliferation of mutated cell lines at lower concentration than for cells expressing wild type EGFR receptor” value in the series with EGFR mutant cell lines is given as “approximately 35 fold”. In addition, the “response of PC-9/GR/WR tumor xenografts to monotherapy” value in series [2] is on record as “Cross-resistance”.

In the case of `COc1cc2ncnc(Nc3ccc(F)c(Cl)c3)c2cc1NC(=O)/C=C/CN1CCCCC1` [dacomitinib], in series [3], the “inhibition of T790M-containing cell lines” value is “effectively inhibit”.
